Results taken from paper PMC10150354, “Linearization of the Brevicidine and Laterocidine Lipopeptides Yields Analogues That Retain Full Antibacterial Activity” (Journal of Medicinal Chemistry, 2023).
Where a SMILES comes first, the peptide text is derived from it. [ ]: non-standard residue; d: D form. The star is where a group is joined. Octanoyl(7-Me) = CC(C)CCCCCC(=O)*; dOrn = NCCC[C@@H](N)C(=O)O; Orn = NCCC[C@H](N)C(=O)O

Tests used:
K. pneumoniae ATCC 13883 = format: cell-based, Klebsiella pneumoniae; conditions: microbroth dilution per CLSI, MHB, 18 h at 37 °C, visual inspection, three technical replicates
Method: (§1) Linear laterocidine (LL-OH, 4) and linear brevicidine (LB-OH, 5) were first synthesized by Fmoc SPPS, starting from 2-chlorotrityl (2-CT) chloride resin. The antibacterial activity of these peptides was then compared to brevicidine (1) and laterocidine (2) using minimum inhibitory concentration (MIC)/microbroth dilution assays (Table 1). The MICs of all peptides were determined against a panel of Gram-negative and Gram-positive ESKAPE pathogens. Additionally, a strain of E. coli carrying the mcr-1 gene was included in the panel. The mcr-1 gene is a transferrable plasmid that confers resistance against colistin, a last-resort antibiotic for Gram-negative infections, by reducing the overall negative charge of lipopolysaccharide (LPS) through modification of lipid A with phosphoethanolamine. The propensity for cationic antibiotics to bind to the cell membrane is therefore reduced. This gene has been observed in more than 27 bacterial species over six continents.[26] The spread of the mcr-1 gene could render colistin ineffectual; therefore, novel antibacterials are urgently required to overcome this form of resistance.
(§2) All minimum inhibitory concentrations (MICs) were determined according to Clinical and Laboratory Standards Institute (CLSI) guidelines. Blood agar plates were inoculated with glycerol stocks of E. coli ATCC 25922, K. pneumoniae ATCC 13883, A. baumannii ATCC 17961, P. aeruginosa PAO1, and S. aureus USA300. The inoculated agar plates were then incubated for 16 h at 37 °C. Individually grown colonies were subsequently used to inoculate 5 mL aliquots of TSB that were then incubated at 37 °C with shaking at 220 rpm. E. coli 25922 MCR-1 glycerol stock was used to inoculate 5 mL of TSB supplemented with kanamycin that was then incubated for 16 h at 37 °C with shaking at 220 rpm. The next day the culture was diluted 100-fold in TSB supplemented with kanamycin and incubated at 37 °C with shaking at 220 rpm. In parallel, the lipopeptide antibiotics DMSO stocks to be assessed were serially diluted with MHB in polypropylene 96-well plates (50 μL in each well). Colistin sulfate stocks were dissolved in water before being diluted with MHB. Aliquots of the inoculated TSB were incubated until an OD600 of around 0.5 was reached. The bacterial suspensions were then diluted with MHB (2 × 10^5 CFU/mL) and added to the microplates containing the test compounds (50 μL to each well). The well plates were sealed with an adhesive membrane and after 18 h of incubation at 37 °C with shaking at 600 rpm, the wells were visually inspected for bacterial growth. MIC values reported are based on three technical replicates and defined as the lowest concentration of the compound that prevented visible growth of bacteria.

E. coli (MCR-1) = format: cell-based, Escherichia coli; conditions: microbroth dilution per CLSI, MHB, 18 h at 37 °C, visual inspection, three technical replicates, E. coli 25922 carrying mcr-1
Method: as §1, §2

E. coli ATCC 25922 = format: cell-based, Escherichia coli; conditions: MIC, microbroth dilution per CLSI, MHB, 18 h at 37 °C, visual inspection, three technical replicates
Method: as §1, §2

P. aeruginosa PAO1 = format: cell-based, Pseudomonas aeruginosa; conditions: microbroth dilution per CLSI, MHB, 18 h at 37 °C, visual inspection, three technical replicates
Method: as §1, §2

A. baumannii ATCC 17961 = format: cell-based, Acinetobacter baumannii; conditions: microbroth dilution per CLSI, MHB, 18 h at 37 °C, visual inspection, three technical replicates
Method: as §1, §2

S. aureus USA300 = format: cell-based, Staphylococcus aureus; conditions: microbroth dilution per CLSI, MHB, 18 h at 37 °C, visual inspection, three technical replicates
Method: as §1, §2

Row | Compound | Antibacterial activity (MIC) K. pneumoniae ATCC 13883 (K. pneumoniae ATCC 13883) | Antibacterial activity (MIC) E. coli (MCR-1) (E. coli (MCR-1)) | Antibacterial activity (MIC) E. coli ATCC 25922 (E. coli ATCC 25922) | Antibacterial activity (MIC) P. aeruginosa PAO1 (P. aeruginosa PAO1) | Antibacterial activity (MIC) A. baumannii ATCC 17961 (A. baumannii ATCC 17961) | Antibacterial activity (MIC) S. aureus USA300 (S. aureus USA300)
1 | CC[C@H](C)[C@H](NC(=O)[C@@H](NC(=O)[C@H](Cc1c[nH]c2ccccc12)NC(=O)[C@@H](CCCN)NC(=O)CNC(=O)[C@H](CCCN)NC(=O)[C@@H](CCCN)NC(=O)[C@@H](Cc1c[nH]c2ccccc12)NC(=O)[C@@H](C)NC(=O)[C@@H](CO)NC(=O)CCCCCC(C)C)[C@@H](C)O)C(=O)N[C@@H](CC(N)=O)C(=O)NCC(=O)NCC(N)=O [LL(D-Ala2)-NH2 (30)] ({Octanoyl(7-Me)}-[dS][dA][dW][dOrn][Orn]G[dOrn]WTINGG-NH2) | >32 µg/mL | 32 µg/mL | 32 µg/mL | 16 µg/mL | >32 µg/mL | >32 µg/mL
2 | CC[C@H](C)[C@H](NC(=O)[C@@H](NC(=O)[C@H](Cc1c[nH]c2ccccc12)NC(=O)[C@@H](CCCN)NC(=O)CNC(=O)[C@H](CCCN)NC(=O)[C@@H](CCCN)NC(=O)[C@@H](C)NC(=O)[C@@H](Cc1ccc(O)cc1)NC(=O)[C@@H](CO)NC(=O)CCCCCC(C)C)[C@@H](C)O)C(=O)N[C@@H](CC(N)=O)C(=O)NCC(=O)NCC(N)=O [LL(D-Ala3)-NH2 (31)] ({Octanoyl(7-Me)}-[dS][dY][dA][dOrn][Orn]G[dOrn]WTINGG-NH2) | >32 µg/mL | >32 µg/mL | >32 µg/mL | >32 µg/mL | >32 µg/mL | >32 µg/mL
3 | CC[C@H](C)[C@H](NC(=O)[C@@H](NC(=O)[C@H](Cc1c[nH]c2ccccc12)NC(=O)[C@@H](CCCN)NC(=O)CNC(=O)[C@H](CCCN)NC(=O)[C@@H](C)NC(=O)[C@@H](Cc1c[nH]c2ccccc12)NC(=O)[C@@H](Cc1ccc(O)cc1)NC(=O)[C@@H](CO)NC(=O)CCCCCC(C)C)[C@@H](C)O)C(=O)N[C@@H](CC(N)=O)C(=O)NCC(=O)NCC(N)=O [LL(D-Ala4)-NH2 (32)] ({Octanoyl(7-Me)}-[dS][dY][dW][dA][Orn]G[dOrn]WTINGG-NH2) | >32 µg/mL | >32 µg/mL | >32 µg/mL | >32 µg/mL | 32 µg/mL | >32 µg/mL
4 | CC[C@H](C)[C@H](NC(=O)[C@@H](NC(=O)[C@H](Cc1c[nH]c2ccccc12)NC(=O)[C@@H](C)NC(=O)CNC(=O)[C@H](CCCN)NC(=O)[C@@H](CCCN)NC(=O)[C@@H](Cc1c[nH]c2ccccc12)NC(=O)[C@@H](Cc1ccc(O)cc1)NC(=O)[C@@H](CO)NC(=O)CCCCCC(C)C)[C@@H](C)O)C(=O)N[C@@H](CC(N)=O)C(=O)NCC(=O)NCC(N)=O [LL(D-Ala7)-NH2 (35)] ({Octanoyl(7-Me)}-[dS][dY][dW][dOrn][Orn]G[dA]WTINGG-NH2) | >32 µg/mL | >32 µg/mL | >32 µg/mL | 32 µg/mL | 32 µg/mL | >32 µg/mL
